Non-standard residues stand in square brackets, D forms with d. Residues, ends and D or L forms follow the SMILES beside them. *: point of attachment. Acetyl(1-naphthyl) = O=C(Cc1cccc2ccccc12)*; Phe(4-Cl) = N[C@@H](Cc1ccc(Cl)cc1)C(=O)O; Isobutyryl = CC(C)C(=O)*; Nle = CCCC[C@H](N)C(=O)O; Abu = CC[C@H](N)C(=O)O
Target: T1, rat pituitary GH-RH receptors (Rattus norvegicus, UniProt Q02644)
T1 construct: from tissue; host or cells: rat anterior pituitary (male Sprague-Dawley), crude membranes
T1 sequence (Q02644 23-464): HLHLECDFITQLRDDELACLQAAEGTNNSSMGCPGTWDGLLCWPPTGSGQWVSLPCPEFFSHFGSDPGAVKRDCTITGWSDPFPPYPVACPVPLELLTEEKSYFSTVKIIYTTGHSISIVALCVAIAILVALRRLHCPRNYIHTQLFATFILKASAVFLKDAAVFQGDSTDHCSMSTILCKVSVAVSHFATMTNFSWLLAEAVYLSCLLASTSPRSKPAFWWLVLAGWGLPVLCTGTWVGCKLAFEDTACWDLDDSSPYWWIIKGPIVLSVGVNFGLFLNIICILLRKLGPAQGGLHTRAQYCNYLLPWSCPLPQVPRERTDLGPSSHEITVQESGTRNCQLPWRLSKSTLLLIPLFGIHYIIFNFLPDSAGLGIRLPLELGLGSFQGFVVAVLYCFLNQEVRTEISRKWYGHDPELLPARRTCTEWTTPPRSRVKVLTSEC
Test: GH-RH binding assay, competitive binding on rat anterior pituitary membrane homogenates
Details: competition with labelled [His1,Nle27]hGH-RH(1-32)NH2
Protocol: GH-RH Binding Assay. A sensitive radioreceptor binding assay was developed to determine the binding characteristics of the antagonists of GH-RH (G. Halmos, A. V. Schally et al., Receptor 3, 87-97, 1993), hereby incorporated by reference. The assay is based on binding of labelled [His^1,Nle^27 ]hGH-RH(1-32)NH2 to rat anterior pituitary membrane homogenates. Iodinated derivatives of [His^1,Nle^27 ]hGH-RH(1-32)NH2 are prepared by the chloramine-T method (F. C. Greenwood et al., Biochemistry 89:114-123, 1963), hereby incorporated by reference. Pituitaries from male Sprague-Dawley rats (250-300 g) are used to prepare crude membranes. For saturation binding analyses, membrane homogenates are incubated with at least 6 concentrations of [His^1,^25 I-Tyr^10,Nle^27 ]hGH-RH(1-32)NH2, ranging from 0.005 to 0.35 nM in the presence or absence of excess unlabelled peptide (1 μM). The pellet is counted for radioactivity in a y-counter. The affinities of the antagonist peptides tested to rat pituitary GH-RH receptors are determined in competitive binding experiments. The final binding affinities are estimated by Ki (dissociation constant of the inhibitor-receptor complex) and are determined by the Ligand PC computer program of Munson and Rodbard as modified by McPherson. Relative affinities compared to [Ac-Tyr^1,D-Arg^2 ]hGH-RH(1-29)NH2, the Standard antagonist, are calculated as the ratio of Ki of the tested GH-RH antagonist to the Ki of the Standard antagonist.

Row | SMILES | Ki
1 | CCCC[C@H](NC(=O)[C@@H](NC(=O)[C@H](CC(=O)O)NC(=O)[C@H](CCC(N)=O)NC(=O)[C@H](CC(C)C)NC(=O)[C@H](CC(C)C)NC(=O)[C@H](CCCCN)NC(=O)[C@H](CCCNC(=N)N)NC(=O)[C@H](C)NC(=O)[C@H](CO)NC(=O)[C@H](CC(C)C)NC(=O)[C@H](CCC(N)=O)NC(=O)[C@H](CC)NC(=O)[C@H](CC(C)C)NC(=O)[C@@H](NC(=O)[C@H](CCCCN)NC(=O)[C@H](CCCNC(=N)N)NC(=O)[C@H](Cc1ccc(O)cc1)NC(=O)[C@H](CO)NC(=O)[C@H](CC(N)=O)NC(=O)[C@@H](NC(=O)[C@H](Cc1ccc(Cl)cc1)NC(=O)[C@@H](NC(=O)[C@H](C)NC(=O)[C@H](CC(=O)O)NC(=O)[C@@H](CCCNC(=N)N)NC(=O)[C@H](Cc1c[nH]cn1)NC(=O)Cc1cccc2ccccc12)[C@@H](C)CC)[C@@H](C)O)C(C)C)[C@@H](C)CC)C(=O)N[C@@H](CO)C(=O)N[C@@H](CCCNC(=N)N)C(N)=O [Peptide 5, [Nac^0 -His^1,D-Arg^2,Phe(pCl)^6,Abu^15, Nle^27]hGH-RH(1-29)NH2] ({Acetyl(1-naphthyl)}-H[dR]DAI[Phe(4-Cl)]TNSYRKVL[Abu]QLSARKLLQDI[Nle]SR-NH2) | 0.05 ± 0.01 nM
2 | CCCC[C@H](NC(=O)[C@@H](NC(=O)[C@H](CC(=O)O)NC(=O)[C@H](CCC(N)=O)NC(=O)[C@H](CC(C)C)NC(=O)[C@H](CC(C)C)NC(=O)[C@H](CCCCN)NC(=O)[C@H](CCCNC(=N)N)NC(=O)[C@H](C)NC(=O)[C@H](CO)NC(=O)[C@H](CC(C)C)NC(=O)[C@H](CCC(N)=O)NC(=O)[C@H](CC)NC(=O)[C@H](CC(C)C)NC(=O)[C@@H](NC(=O)[C@H](CCCCN)NC(=O)[C@H](CCCNC(=N)N)NC(=O)[C@H](Cc1ccc(O)cc1)NC(=O)[C@H](CO)NC(=O)[C@H](CC(N)=O)NC(=O)[C@@H](NC(=O)[C@H](Cc1ccc(Cl)cc1)NC(=O)[C@@H](NC(=O)[C@H](C)NC(=O)[C@H](CC(=O)O)NC(=O)[C@@H](CCCNC(=N)N)NC(=O)[C@H](CCC(=O)O)NC(=O)C(C)C)[C@@H](C)CC)[C@@H](C)O)C(C)C)[C@@H](C)CC)C(=O)N[C@@H](CO)C(=O)N[C@@H](CCCNC(=N)N)C(N)=O [Peptide 7] (Isobutyryl-E[dR]DAI[Phe(4-Cl)]TNSYRKVL[Abu]QLSARKLLQDI[Nle]SR-NH2) | 1.35 ± 0.02 nM

Reference: patent publication US5550212A, “Analogues of hGH-RH(1-29)NH2 having antagonistic activity” (The Administrators of the Tulane Educational Fund, priority 1993, dated 1996)
